Laboratory results as given in ChEMBL document CHEMBL4414677, “Albanitriles A-G: Antiprotozoal Polyacetylene Nitriles from a Mycale Marine Sponge” (J Nat Prod, 2019).
In brackets after ≈: the same amount, converted by molar mass.

Assays:
[1] = system: Bacillus spizizenii; experiment: Antibacterial activity against Bacillus subtilis ATCC 6633 assessed as bacterial growth inhibition measured after 48 hrs by resazurin assay; assay type: functional; settings: ATCC 6633, 48 h
[2] = system: Escherichia coli; experiment: Antibacterial activity against Escherichia coli ATCC 25922 assessed as bacterial growth inhibition measured after 48 hrs by resazurin assay; assay type: functional; settings: ATCC 25922, 48 h
[3] = system: Giardia intestinalis; experiment: Antiprotozoal activity against Giardia duodenalis 713 assessed as protozoal growth inhibition measured after 96 hrs under anaerobic conditions; assay type: functional; settings: Giardia duodenalis, 713, 96 h
[4] = system: Tritrichomonas foetus; experiment: Antiprotozoal activity against Tritrichomonas foetus KV1 assessed as protozoal growth inhibition measured after 72 hrs under anaerobic conditions; assay type: functional; settings: KV1, 72 h
[5] = Cytotoxicity against human NFF cells assessed as cell growth inhibition measured after 96 hrs by resazurin assay; assay type: cell-based; settings: read-out: MIC
[6] = system: Candida albicans; experiment: Antifungal activity against Candida albicans ATCC 10231 assessed as fungal growth inhibition measured after 48 hrs by bromocresol green dye based assay; assay type: functional
[7] = Cytotoxicity against mouse NS1 cells assessed as cell growth inhibition measured after 96 hrs by resazurin assay; assay type: cell-based; settings: read-out: MIC

Row | Molecule | MIC [1] [µM] | MIC [2] [µM] | MIC [3] [µM] | MIC [4] [µM] | MCC at 96 h [5] [µM] | MIC ([6]; ATCC 10231, 48 h) [µM] | MCC at 96 h [7] [µM] | MIC [6] [µM]
1 | CN(C)[C@@H]1C(O)=C(C(N)=O)C(=O)[C@@]2(O)C(O)=C3C(=O)c4c(O)cccc4[C@@](C)(O)[C@H]3C[C@@H]12 [TETRACYCLINE] | 0.9 (≈ 0.4 µg/mL) | 14 (≈ 6.22 µg/mL) | – | – | – | – | – | –
2 | Cc1ncc([N+](=O)[O-])n1CCO [METRONIDAZOLE] | – | – | 2.9 (≈ 0.496 µg/mL) | 1.2 (≈ 0.205 µg/mL) | – | – | – | –
3 | N#CCCCCC#CC#CC#CCCCCCC(O)C#N (stereo not given) | 90 (≈ 25.2 µg/mL) | > 360 | 90 (≈ 25.2 µg/mL) | > 360 | 90 | > 360 | 180 | –
4 | N#CCCCCC#CC#CC#CCCCCCC#N | > 400 | > 400 | 25 (≈ 6.26 µg/mL) | 200 (≈ 50.1 µg/mL) | 100 | > 400 | 50 | –
5 | N#CCCCCC#CC#CC#CCCCCCC=O | 400 (≈ 101 µg/mL) | > 400 | 400 (≈ 101 µg/mL) | 200 (≈ 50.7 µg/mL) | 50 | > 400 | 100 | –
6 | N#CCCCCC#CC#CC#CCCCCCCC#N | 400 (≈ 106 µg/mL) | > 400 | 12 (≈ 3.17 µg/mL) | 190 (≈ 50.2 µg/mL) | 100 | > 400 | 50 | –
7 | CSC[S@+]([O-])C[C@H](CO)NC(=O)/C=C/c1c(C)[nH]c(=O)[nH]c1=O | – | – | – | – | 1.7 | – | 0.55 | –
8 | NYSTATIN | – | – | – | – | – | – | – | 1.7
